Results from ChEMBL document CHEMBL4699649, “Design and Optimization of an Acyclic Amine Series of TRPV4 Antagonists by Electronic Modulation of Hydrogen Bond Interactions” (J Med Chem, 2020).
Values after ≈ are worked out from the molar mass of the structure shown. One block for each compound: values may come before it.

How the values were obtained:
[1] = molecular target: Transient receptor potential cation channel subfamily V member 4 (Homo sapiens, UniProt Q9HBA0); test: Antagonist activity at human TRPV4 expressed in BHK or HEK MSR2 cells assessed as inhibition of TRPV4 agonist GSK634775 (EC80)-induced response incubated for 10 mins; type: cell-based
[2] = Solubility of the compound by CLND assay; type: physicochemical
[3] = Distribution coefficient, log D of the compound by chromatographic method; type: physicochemical; conditions: octanol/water
[4] = MRT in iv dosed rat; type: ADME, organism-based; conditions: in vivo
[5] = Fraction unbound in rat plasma; type: ADME, cell-free
[6] = Clearance in iv dosed rat; type: ADME, organism-based; conditions: in vivo
[7] = Oral bioavailability in rat; type: ADME, organism-based; conditions: in vivo
[8] = Dose normalized AUC in orally dosed rat; type: ADME, organism-based; conditions: in vivo, po
[9] = molecular target: Cytochrome P450 3A4 (Homo sapiens, UniProt P08684); test: Time dependent inhibition of recombinant human CYP3A4 expressed in bactosomes at 100 to 300 uM using 7-benzyloxy-4-(trifluoromethyl)-coumarin substrate in presence of NADPH-generating system incubated up to 15 mins by fluorescence based assay; type: ADME; conditions: recombinant enzyme, 0.25 h, dose 100-300 µM
[10] = Unbound clearance in iv dosed rat; type: ADME, organism-based; conditions: in vivo
[11] = Cmax in rat; type: ADME; conditions: in vivo
[12] = Volume of distribution at steady state in iv dosed rat; type: ADME, organism-based; conditions: in vivo, read-out: Vdss

Cytochrome P450 3A4, sequence (P08684 whole entry): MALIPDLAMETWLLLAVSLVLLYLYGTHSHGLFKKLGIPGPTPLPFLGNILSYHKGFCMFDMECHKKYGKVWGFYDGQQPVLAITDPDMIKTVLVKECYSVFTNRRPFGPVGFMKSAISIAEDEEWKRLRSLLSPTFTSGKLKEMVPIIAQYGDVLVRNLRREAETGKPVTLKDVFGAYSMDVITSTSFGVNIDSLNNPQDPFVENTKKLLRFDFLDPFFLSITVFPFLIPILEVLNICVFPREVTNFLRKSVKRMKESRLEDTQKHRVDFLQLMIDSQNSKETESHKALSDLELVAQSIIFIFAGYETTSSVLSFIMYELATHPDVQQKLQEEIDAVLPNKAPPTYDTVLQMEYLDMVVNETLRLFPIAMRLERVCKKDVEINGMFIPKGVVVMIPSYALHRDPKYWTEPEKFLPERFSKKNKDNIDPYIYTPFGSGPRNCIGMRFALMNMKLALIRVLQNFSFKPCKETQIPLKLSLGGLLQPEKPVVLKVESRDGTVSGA
Transient receptor potential cation channel subfamily V member 4, sequence (Q9HBA0 whole entry): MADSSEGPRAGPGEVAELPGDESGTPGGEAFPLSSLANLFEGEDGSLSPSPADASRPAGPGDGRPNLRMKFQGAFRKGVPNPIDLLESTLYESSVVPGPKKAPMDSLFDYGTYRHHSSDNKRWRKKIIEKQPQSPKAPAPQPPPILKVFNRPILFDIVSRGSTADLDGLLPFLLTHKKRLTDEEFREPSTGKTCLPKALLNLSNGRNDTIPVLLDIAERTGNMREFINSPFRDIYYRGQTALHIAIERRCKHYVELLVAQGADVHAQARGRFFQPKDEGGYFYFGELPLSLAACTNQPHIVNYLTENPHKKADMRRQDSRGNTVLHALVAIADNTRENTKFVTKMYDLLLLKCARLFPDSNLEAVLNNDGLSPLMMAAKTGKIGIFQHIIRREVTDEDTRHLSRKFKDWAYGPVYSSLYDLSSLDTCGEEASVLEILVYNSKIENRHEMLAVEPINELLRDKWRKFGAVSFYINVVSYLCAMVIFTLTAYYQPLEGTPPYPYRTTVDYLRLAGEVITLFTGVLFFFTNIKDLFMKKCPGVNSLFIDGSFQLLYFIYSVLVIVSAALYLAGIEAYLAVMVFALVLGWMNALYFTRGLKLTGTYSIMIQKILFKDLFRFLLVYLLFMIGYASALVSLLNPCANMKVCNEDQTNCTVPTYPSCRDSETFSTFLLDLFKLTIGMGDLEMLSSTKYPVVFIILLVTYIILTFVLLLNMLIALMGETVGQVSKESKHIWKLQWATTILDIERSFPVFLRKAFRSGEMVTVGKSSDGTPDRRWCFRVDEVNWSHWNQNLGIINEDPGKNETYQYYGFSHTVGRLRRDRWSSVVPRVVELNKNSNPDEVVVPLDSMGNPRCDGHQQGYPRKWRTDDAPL

- IC50 [1]: 0.1 µM
- solubility kinetic [2]: 7.5 µM (≈ 3.44 µg/mL)
SMILES: N#Cc1ccc(OCC2(O)CCN(S(=O)(=O)c3ccc(Cl)cc3Cl)CC2)cc1F

- chromatographic logD [3]: 4.6
- solubility kinetic [2]: ≥ 390 µM
SMILES: N#Cc1ccc(OCC(N)CCNS(=O)(=O)c2ccc(Cl)cc2Cl)cc1F (racemic)

- MRT [4]: 7 h
- fraction unbound [5]: 0.064
- clearance [6]: 37 mL/min/kg
- bioavailability [7]: 100%
- AUC/dose [8]: 0.6 µg·h/mL
- inhibition (INH) [9]: Not Active
SMILES: C[C@](N)(CCNS(=O)(=O)c1ccc(C#N)cc1C(F)(F)F)COc1ccc(C#N)c(F)c1

- CL free [10]: 512 mL/min/kg
- MRT [4]: 7.5 h
- fraction unbound [5]: 0.0084
- chromatographic logD [3]: 4.5
- clearance [6]: 4.3 mL/min/kg
- bioavailability [7]: 85%
- Cmax [11]: 930 ng/mL
- AUC/dose [8]: 4.7 µg·h/mL
- Vd [12]: 1.8 L/kg
- solubility kinetic [2]: 381 µM (≈ 165 µg/mL)
- inhibition (INH) [9]: Active
SMILES: N#Cc1ccc(OC[C@@H](N)CCNS(=O)(=O)c2ccc(Cl)cc2Cl)cc1F

- IC50 [1]: 0.631 µM
SMILES: N#Cc1ccc(OC[C@@H](N)CCNS(=O)(=O)c2ccccc2OC(F)(F)F)cc1F

- IC50 [1]: 12.6 µM
SMILES: NC(CCNS(=O)(=O)c1ccc(Cl)cc1Cl)COc1cccc(Cl)c1 (centres undefined)

- MRT [4]: 6.9 h
- fraction unbound [5]: 0.015
- clearance [6]: 4.7 mL/min/kg
- bioavailability [7]: 100%
- AUC/dose [8]: 3.7 µg·h/mL
- inhibition (INH) [9]: Active
SMILES: N#Cc1ccc(S(=O)(=O)NCC[C@H](N)COc2ccc(C#N)c(F)c2)c(C(F)(F)F)c1

- IC50 [1]: > 25.1 µM
SMILES: Cc1cccc(OCC(N)CCNS(=O)(=O)c2ccc(Cl)cc2Cl)c1 (centres undefined)

- chromatographic logD [3]: 5.2
- solubility kinetic [2]: 113 µM (≈ 49 µg/mL)
SMILES: N#Cc1ccc(OCC(O)CCNS(=O)(=O)c2ccc(Cl)cc2Cl)cc1F (centres undefined)

- IC50 [1]: 7.94 µM
SMILES: COc1ccccc1S(=O)(=O)NCC[C@H](N)COc1ccc(C#N)c(F)c1

- IC50 [1]: 0.631 µM
SMILES: N#Cc1ccc(OC[C@@H](N)CCNS(=O)(=O)c2ccc(C(F)(F)F)cc2)cc1F

- IC50 [1]: 10 µM
SMILES: CN(CCC(O)COc1ccc(C#N)c(F)c1)S(=O)(=O)c1ccc(Cl)cc1Cl (racemic)

- IC50 [1]: 0.0398 µM
SMILES: N#Cc1ccc(OC[C@@H](N)CCNS(=O)(=O)c2ccccc2C(F)(F)F)cc1F

- IC50 [1]: 20 µM
SMILES: N#Cc1ccc(OCC(N)CCNS(=O)(=O)c2ccccc2)cc1F (racemic)

- IC50 [1]: 12.6 µM
SMILES: N#Cc1ccc(OCC(N)CCNS(=O)(=O)c2cccc(Cl)c2)cc1F (racemic)

- MRT [4]: 2.3 h
- fraction unbound [5]: 0.029
- clearance [6]: 38 mL/min/kg
- bioavailability [7]: 22%
- AUC/dose [8]: 0.1 µg·h/mL
- inhibition (INH) [9]: Active
SMILES: N#Cc1ccc(N)c(OC[C@@H](N)CCNS(=O)(=O)c2ccc(Cl)cc2Cl)c1
